Literature values in US20180000940A1, “INJECTABLE FORMULATIONS OF PARACETAMOL” (TROIKAA PHARMACEUTICALS LIMITED, priority 2014, published 2018).

Details: solution no 20: 30% propylene-glycol, 40% polyethylene-glycol 400, 30% water; 20° C.

Structure (SMILES): CC(=O)Nc1ccc(O)cc1 [paracetamol, Paracetamol]
- Amount of paracetamol that can be dissolved: about 200 mg/ml
